21 compounds from patent US12227496B2 (BRISTOL-MYERS SQUIBB COMPANY, priority 2019, dated 2025) can be followed below.

The target in the assay is T1, human FXR (Homo sapiens, UniProt Q96RI1).
T1 construct: expressed in transfected cells; host or cells: HEK293 cells stably carrying a 5xGal4-response-element firefly luciferase reporter, transiently transfected with pcDNA3.1-Gal4-FXR
T1 sequence (Q96RI1 262-486 limits assumed): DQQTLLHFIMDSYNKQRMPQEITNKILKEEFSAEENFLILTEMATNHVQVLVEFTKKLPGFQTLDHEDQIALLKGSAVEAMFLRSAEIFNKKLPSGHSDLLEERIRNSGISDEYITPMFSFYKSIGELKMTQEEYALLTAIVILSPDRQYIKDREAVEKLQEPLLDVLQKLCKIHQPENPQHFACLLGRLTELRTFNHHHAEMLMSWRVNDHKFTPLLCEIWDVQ
Nature of the assay: transient human FXR/Gal4-luciferase reporter assay. The class given is cell-based. Particulars: Gal4-hFXR LBD fusion, luciferase reporter in HEK293 cells; response relative to 8 μM GW-4064. On the procedure:
A Gal4-hFXR fusion construct reporter system was used as the primary assay to characterize compound activity. A construct including 5 copies of the Gal4 promoter response element upstream of a firefly luciferase reporter cDNA was stably expressed in HEK293 cells. This reporter cell line was maintained in Dulbecco's Modified Eagle's medium (DMEM; Gibco) supplemented with 1% penicillin-streptomycin (P/S) solution, 500 μg/mL Zeocin and 10% charcoal/dextran-treated fetal bovine serum (cs-FBS) at 37° C. in a humidified 5% CO2 atmosphere. […] The day prior to transfection, the reporter cells in culture are detached from the plate with trypsin and plated into a T75 flask at a sufficient density to achieve approximately 90% confluence the next morning. […] The mixture is further diluted with 10 mL of a solution comprised of DMEM, 10% cs-FBS, and 1% P/S immediately prior to transferring to the cells. The maintenance culture media is aspirated from the cells and the final transfection mixture is added before the cells are incubated overnight at 37° C. in a humidified 5% CO2 atmosphere. This protocol can be scaled up, and the transiently transfected cells can be cryopreserved in an assay-ready format. For compound testing, 100 nL of the compounds (serial dilutions in DMSO) are dispensed with an Echo acoustic dispenser (Labcyte) into the wells of a Corning/Costar clear bottom 384-well white plate. The transfected cells are harvested, counted, and diluted such that 10-25,000 cells in 25 μL are plated into each well of the 384-well compound assay plate. The compound-treated cells are incubated overnight at 37° C. in a humidified 5% CO2 atmosphere. The next morning 25 μL of Steady-Glo (Promega) are added to each well of the plate, the mixture is incubated for 15 min. with shaking, and luminescence is measured on an Envision (Perkin Elmer) plate reader.
In general terms: A reporter such as luciferase makes a cellular process visible.

For orientation: EC50 means the concentration that produces a half-maximal response. Higher therefore signals a need for much substance.

Structures are written as SMILES.

Compound `O=C(C1CCCCC1)N(CC12CCC(c3nc(C4CC4)no3)(CC1)CC2)c1cccc(-c2nc(C3CC3)no2)c1` [Example 13, N-((4-(3-cyclopropyl-1,2,4-oxadiazol-5-yl)bicyclo[2.2.2]octan-1-yl)methyl)-N-(3-(3-cyclopropyl-1,2,4-oxadiazol-5-yl)phenyl)cyclohexanecarboxamide] had an EC50 of 0.082 µM.

The compound `CCOC(=O)c1coc(-c2cccc(N(CC34CCC(c5nc(C)no5)(CC3)CC4)C(=O)C3CCCCC3)c2)n1` [Example 19, Ethyl 2-(3-(N-((4-(3-methyl-1,2,4-oxadiazol-5-yl)bicyclo[2.2.2]octan-1-yl)methyl)cyclohexanecarboxamido)phenyl)oxazole-4-carboxylate] registered an EC50 of 1.56 µM.

`CC(F)(F)c1nc(C23CCC(CN(C(=O)C4CCC(F)(F)CC4)c4ccc(F)c(-c5ccc(S(C)(=O)=O)cc5)c4)(CC2)CC3)no1` [Example 107, N-((4-(5-(1,1-difluoroethyl)-1,2,4-oxadiazol-3-yl)bicyclo[2.2.2]octan-1-yl)methyl)-4,4-difluoro-N-(6-fluoro-4′-(methylsulfonyl)-[1,1′-biphenyl]-3-yl)cyclohexane-1-carboxamide] gave an EC50 of 1.02 µM.

With `O=C(N1CCOCC1)N(CC12CCC(c3nc(C4CC4)no3)(CC1)CC2)c1cccc(-c2nc(C3CC3)no2)c1` [Example 56, N-((4-(3-cyclopropyl-1,2,4-oxadiazol-5-yl)bicyclo[2.2.2]octan-1-yl)methyl)-N-(3-(3-cyclopropyl-1,2,4-oxadiazol-5-yl)phenyl)morpholine-4-carboxamide], the concentration giving a half-maximal response (EC50) turned out to be 0.739 µM.

For `COc1cc(-c2cccc(N(CC34CCC(c5nc(C)no5)(CC3)CC4)C(=O)C3CCCCC3)c2)no1` [Example 11, N-(3-(5-methoxyisoxazol-3-yl)phenyl)-N-((4-(3-methyl-1,2,4-oxadiazol-5-yl)bicyclo[2.2.2]octan-1-yl)methyl)cyclohexanecarboxamide], the EC50 was 0.66 µM.

Compound `O=C(C1CCCOC1)N(CC12CCC(c3nc(C4CC4)no3)(CC1)CC2)c1cccc(-c2cnc(C3CC3)o2)c1` (racemic) [Example 25, N-((4-(3-cyclopropyl-1,2,4-oxadiazol-5-yl)bicyclo[2.2.2]octan-1-yl)methyl)-N-(3-(2-cyclopropyloxazol-5-yl)phenyl)tetrahydro-2H-pyran-3-carboxamide] registered a 50% effective concentration (EC50) of 0.074 µM.

Consider `O=C(N1CCCCC1)N(CC12CCC(c3nc(C4CC4)no3)(CC1)CC2)c1cccc(-c2nc(C3CC3)no2)c1` [Example 57, N-((4-(3-cyclopropyl-1,2,4-oxadiazol-5-yl)bicyclo[2.2.2]octan-1-yl)methyl)-N-(3-(3-cyclopropyl-1,2,4-oxadiazol-5-yl)phenyl) piperidine-1-carboxamide], for which a half-maximal effect (EC50) was put at 0.819 µM.

In turn, `CN1CCC(C(=O)N(CC23CCC(c4cc(C5CC5)nn4C)(CC2)CC3)c2cccc(-c3ccc(S(C)(=O)=O)cc3)c2)CC1` [Example 136, N-((4-(3-cyclopropyl-1-methyl-1H-pyrazol-5-yl)bicyclo[2.2.2]octan-1-yl)methyl)-1-methyl-N-(4′-(methylsulfonyl)-[1,1′-biphenyl]-3-yl)piperidine-4-carboxamide] had a concentration for a half-maximal effect (EC50) of 4 µM.

The compound `O=C(C1CCOCC1)N(CC12CCC(c3nc(C4CC4)no3)(CC1)CC2)c1cccc(-c2nc(C(F)F)co2)c1` [Example 36, N-((4-(3-cyclopropyl-1,2,4-oxadiazol-5-yl)bicyclo[2.2.2]octan-1-yl)methyl)-N-(3-(4-(difluoromethyl)oxazol-2-yl)phenyl)tetrahydro-2H-pyran-4-carboxamide] showed a half-maximal effective concentration (EC50) of 0.525 µM.

With `CC(C)(C)c1noc(C23CCC(CN(C(=O)C4CCC(F)(F)CC4)c4cccc(-c5cnn6cc(Cl)cnc56)c4)(CC2)CC3)n1` [Example 141, N-((4-(3-(tert-butyl)-1,2,4-oxadiazol-5-yl)bicyclo[2.2.2]octan-1-yl)methyl)-N-(3-(6-chloropyrazolo[1,5-a]pyrimidin-3-yl)phenyl)-4,4-difluorocyclohexane-1-carboxamide], the EC50 amounted to 0.549 µM.

`CC(C)(C)c1noc(C23CCC(CN(C(=O)C4CCC(F)(F)CC4)c4cccc(-c5cn[nH]c(=O)c5)c4)(CC2)CC3)n1` [Example 127, N-((4-(3-(tert-Butyl)-1,2,4-oxadiazol-5-yl)bicyclo[2.2.2]octan-1-yl)methyl)-4,4-difluoro-N-(3-(6-oxo-1,6-dihydropyridazin-4-yl)phenyl)cyclohexane-1-carboxamide] yielded an EC50 of 4 µM.

`CCOC(=O)c1nc(-c2cccc(N(CC34CCC(c5nc(C6CC6)no5)(CC3)CC4)C(=O)C3CCCCC3)c2)cs1` [Example 31, Ethyl 4-(3-(N-((4-(3-cyclopropyl-1,2,4-oxadiazol-5-yl)bicyclo[2.2.2]octan-1-yl)methyl)cyclohexanecarboxamido)phenyl)thiazole-2-carboxylate]: the 50% effective concentration (EC50) was 1.2 µM.

Regarding `O=C(C1CCCCC1)N(CC12CCC(c3nc(C4CC4)no3)(CC1)CC2)c1cccc(-c2cnc(C3CC3)o2)c1` [Example 22, N-((4-(3-cyclopropyl-1,2,4-oxadiazol-5-yl)bicyclo[2.2.2]octan-1-yl)methyl)-N-(3-(2-cyclopropyloxazol-5-yl)phenyl)cyclohexanecarboxamide], the EC50 stood at 0.037 µM.

Compound `CC(C)(C)c1noc(C23CCC(CN(C(=O)C4CCOCC4)c4cccc(-c5cc(C6CC6)on5)c4)(CC2)CC3)n1` [Example 161, N-((4-(3-(tert-butyl)-1,2,4-oxadiazol-5-yl)bicyclo[2.2.2]octan-1-yl)methyl)-N-(3-(5-cyclopropylisoxazol-3-yl)phenyl)tetrahydro-2H-pyran-4-carboxamide] registered an EC50 of 0.077 µM.

Compound `CC(C)(C)c1nc(C23CCC(CN(C(=O)C4CCC(F)(F)CC4)c4cccc(-c5cc(C6CC6)on5)c4)(CC2)CC3)no1` [Example 162, N-((4-(5-(tert-butyl)-1,2,4-oxadiazol-3-yl)bicyclo[2.2.2]octan-1-yl)methyl)-N-(3-(5-cyclopropylisoxazol-3-yl)phenyl)-4,4-difluorocyclohexane-1-carboxamide] returned a half-maximal effective concentration (EC50) of 0.041 µM.

The compound `O=C(C1CCC(F)(F)CC1)N(CC12CCC(c3noc(C4CC(O)(C(F)(F)F)C4)n3)(CC1)CC2)c1cccc(-c2cnc(C3CC3)nc2)c1` (stereo not drawn) [Example 120, N-(3-(2-cyclopropylpyrimidin-5-yl)phenyl)-4,4-difluoro-N-((4-(5-(3-hydroxy-3-(trifluoromethyl)cyclobutyl)-1,2,4-oxadiazol-3-yl)bicyclo[2.2.2]octan-1-yl)methyl)cyclohexane-1-carboxamide] gave a concentration for a half-maximal effect (EC50) of 2 µM.

`COc1cc(-c2cccc(N(CC34CCC(c5nnnn5C)(CC3)CC4)C(=O)C3CCCCC3)c2)ccn1` [Example 100, N-(3-(2-methoxypyridin-4-yl)phenyl)-N-((4-(1-methyl-1H-tetrazol-5-yl)bicyclo[2.2.2]octan-1-yl)methyl)cyclohexanecarboxamide] had a concentration giving a half-maximal response (EC50) of 0.506 µM.

As for `O=C(C1CCC(F)(F)CC1)N(CC12CCC(c3nc(C4CC4)no3)(CC1)CC2)c1cccc(-c2cc(C3CC3)no2)c1` [Example 151, N-((4-(3-cyclopropyl-1,2,4-oxadiazol-5-yl)bicyclo[2.2.2]octan-1-yl)methyl)-N-(3-(3-cyclopropylisoxazol-5-yl)phenyl)-4,4-difluorocyclohexane-1-carboxamide], the EC50 worked out at 0.038 µM.

Take `CCOc1ccc(-c2cccc(N(CC34CCC(c5nc(C(C)(C)C)no5)(CC3)CC4)C(=O)C3CCC(OC)CC3)c2)cc1` (single isomer, unassigned) [Example 145, N-((4-(3-(tert-butyl)-1,2,4-oxadiazol-5-yl)bicyclo[2.2.2]octan-1-yl)methyl)-N-(4′-ethoxy-[1,1′-biphenyl]-3-yl)-4-methoxycyclohexane-1-carboxamide]: the 50% effective concentration (EC50) was found to be 0.303 µM.

The compound `CN1CCC(C(=O)N(CC23CCC(c4noc(C(C)(C)C)n4)(CC2)CC3)c2cccc(-c3nc(C4CC4)no3)c2)CC1` [Example 118, N-((4-(5-(tert-butyl)-1,2,4-oxadiazol-3-yl)bicyclo[2.2.2]octan-1-yl)methyl)-N-(3-(3-cyclopropyl-1,2,4-oxadiazol-5-yl)phenyl)-1-methylpiperidine-4-carboxamide] registered an EC50 of 1.95 µM.

With `COC(=O)C1CC1c1cccc(N(CC23CCC(c4nc(C)no4)(CC2)CC3)C(=O)C2CCCCC2)c1` (single isomer, unassigned) [Example 102, Methyl 2-(3-(N-((4-(3-methyl-1,2,4-oxadiazol-5-yl)bicyclo[2.2.2]octan-1-yl)methyl)cyclohexanecarboxamido)phenyl)cyclopropane-1-carboxylate], the response was half-maximal at 0.518 µM (EC50).
